Test results taken from ChEMBL document CHEMBL1201862, “PubChem BioAssay data set” (2004).
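Compound exposure: 48 hours, 5 concentrations, 96-well plates. GI50 marks 50% less growth.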 Active and inactive are the calls of the source. Cut-off read from the data, not from the text of the source: active = GI50 up to about 1.1 µM and inactive = higher.

Legend:
Assay in all cases: NCI anticancer screen, dose series, 48 h
A498 = test system: A498
BT-549 = test system: BT-549
CAKI-1 = test system: CAKI-1
CCRF-CEM = test system: CCRF-CEM
DU-145 = test system: DU-145
HOP-62 = test system: HOP-62
HOP-92 = test system: HOP-92
Hs-578T = test system: Hs-578T
M14 = test system: M14
MOLT-4 = test system: MOLT-4
NCI-H226 = test system: NCI-H226
NCI-H23 = test system: NCI-H23
OVCAR-3 = test system: OVCAR-3
SF-295 = test system: SF-295
SK-MEL-28 = test system: SK-MEL-28
SK-OV-3 = test system: SK-OV-3
TK-10 = test system: TK-10
U-251 = test system: U-251
UACC-62 = test system: UACC-62
A549 = test system: A549

Measured: GI50

CC(C)(C)[Si](C)(C)OCC1OC(n2cnc3c(N)ncnc32)C2OC(=S)OC12 (stereo not drawn)
inactive: A498 52.7 µM | BT-549 25.1 µM | CAKI-1 41.3 µM | CCRF-CEM 12.7 µM | DU-145 25.1 µM | HOP-62 36.7 µM | HOP-92 70.8 µM | Hs-578T 41.5 µM | M14 45.5 µM | MOLT-4 16.1 µM | NCI-H226 29.4 µM | NCI-H23 21.8 µM | OVCAR-3 29.2 µM | SF-295 37.4 µM | SK-MEL-28 38.4 µM | SK-OV-3 19.5 µM | TK-10 > 100 µM | U-251 25.2 µM | UACC-62 23.8 µM

O=C(N/N=C(/c1ccccc1)C(F)(F)F)c1ccncc1
inactive: A498 > 100 µM | BT-549 > 100 µM | CAKI-1 > 100 µM | CCRF-CEM 76 µM | DU-145 > 100 µM | HOP-62 > 100 µM | HOP-92 > 100 µM | Hs-578T > 100 µM | M14 > 100 µM | MOLT-4 64.3 µM | NCI-H226 > 100 µM | NCI-H23 > 100 µM | OVCAR-3 > 100 µM | SF-295 > 100 µM | SK-MEL-28 > 100 µM | SK-OV-3 > 100 µM | TK-10 > 100 µM | U-251 > 100 µM | UACC-62 > 100 µM

COc1ccc(C2(CC(C)O)SCCCS2)cc1 (stereo not drawn)
inactive: A498 > 100 µM | A549 > 100 µM | BT-549 > 100 µM | CAKI-1 > 100 µM | CCRF-CEM 63.1 µM | DU-145 > 100 µM | HOP-62 > 100 µM | HOP-92 > 100 µM | Hs-578T > 100 µM | M14 > 100 µM | MOLT-4 42 µM | NCI-H226 > 100 µM | NCI-H23 > 100 µM | OVCAR-3 > 100 µM | SF-295 > 100 µM | SK-MEL-28 > 100 µM | SK-OV-3 > 100 µM | TK-10 > 100 µM | U-251 > 100 µM | UACC-62 > 100 µM

O=C(c1cccc(OCc2ccccc2)c1OCc1ccccc1)N1CCSC1=S
inactive: A498 16.5 µM | A549 23.7 µM | BT-549 29.5 µM | CAKI-1 31 µM | CCRF-CEM 5.05 µM | DU-145 28.1 µM | HOP-62 27.2 µM | HOP-92 18.1 µM | Hs-578T 2.29 µM | M14 33.2 µM | MOLT-4 12.6 µM | NCI-H226 23.8 µM | NCI-H23 19.1 µM | OVCAR-3 21.1 µM | SF-295 30 µM | SK-MEL-28 48.5 µM | SK-OV-3 30.1 µM | TK-10 56.5 µM | U-251 29.1 µM | UACC-62 19.2 µM

CC(=O)O[C@@H]1C(C2CCCCC2)C=[N+]([O-])O[C@@H]1OC1CCCC1(c1ccccc1)c1ccccc1 (stereo partly drawn)
inactive: A498 7.41 µM | A549 14.8 µM | BT-549 12.4 µM | CAKI-1 5.33 µM | CCRF-CEM 2.63 µM | DU-145 10.9 µM | HOP-62 14.9 µM | HOP-92 10.1 µM | Hs-578T 11 µM | M14 5.31 µM | MOLT-4 3.32 µM | NCI-H226 16.6 µM | NCI-H23 11 µM | OVCAR-3 2.7 µM | SF-295 14.4 µM | SK-MEL-28 2.32 µM | SK-OV-3 15.7 µM | TK-10 14.5 µM | U-251 12.5 µM | UACC-62 5.81 µM
